This is an account of results in patent US20240208968A1, “ALPHA V BETA 6 AND ALPHA V BETA 1 INTEGRIN INHIBITORS AND USES THEREOF” (DiCE Molecules SV, Inc., priority 2021, published 2024).

For one assay, the target named is αvβ6 (Homo sapiens, UniProt P06756+P18564). In words: Solid Phase Integrin αvβ6 Assay. The class given is binding. The procedure, abridged:
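Inhibition of αvβ6 binding to immobilized recombinant TGFb1-LAP (1 μg/mL coating), 1 h at room temperature with 1 mM MnCl2 in BSA/TBST buffer, integrin diluted to 0.2 μg/mL before addition. Streptavidin-HRP/TMB read-out; four-parameter logistic fitting gave IC50.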

The target of the next assay is αvβ1 (Homo sapiens, UniProt P05556+P06756). The assay can be described thus: Solid Phase Integrin αvβ1 Assay. The assay is classed as binding. The procedure, abridged: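 Compound competes for αvβ1 binding to immobilized TGFb1-LAP (1 µg/mL coat) in Mn2+ (1 mM MnCl2), 2% BSA binding buffer over 90 min at room temperature, integrin added at 0.2 µg/mL. Read-out: streptavidin-HRP/TMB; IC50 from Levenberg-Marquardt four-parameter fit.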

A value given as a limit tells only on which side of the number the result lay.

αvβ6, sequence (P06756 31-992 limits assumed): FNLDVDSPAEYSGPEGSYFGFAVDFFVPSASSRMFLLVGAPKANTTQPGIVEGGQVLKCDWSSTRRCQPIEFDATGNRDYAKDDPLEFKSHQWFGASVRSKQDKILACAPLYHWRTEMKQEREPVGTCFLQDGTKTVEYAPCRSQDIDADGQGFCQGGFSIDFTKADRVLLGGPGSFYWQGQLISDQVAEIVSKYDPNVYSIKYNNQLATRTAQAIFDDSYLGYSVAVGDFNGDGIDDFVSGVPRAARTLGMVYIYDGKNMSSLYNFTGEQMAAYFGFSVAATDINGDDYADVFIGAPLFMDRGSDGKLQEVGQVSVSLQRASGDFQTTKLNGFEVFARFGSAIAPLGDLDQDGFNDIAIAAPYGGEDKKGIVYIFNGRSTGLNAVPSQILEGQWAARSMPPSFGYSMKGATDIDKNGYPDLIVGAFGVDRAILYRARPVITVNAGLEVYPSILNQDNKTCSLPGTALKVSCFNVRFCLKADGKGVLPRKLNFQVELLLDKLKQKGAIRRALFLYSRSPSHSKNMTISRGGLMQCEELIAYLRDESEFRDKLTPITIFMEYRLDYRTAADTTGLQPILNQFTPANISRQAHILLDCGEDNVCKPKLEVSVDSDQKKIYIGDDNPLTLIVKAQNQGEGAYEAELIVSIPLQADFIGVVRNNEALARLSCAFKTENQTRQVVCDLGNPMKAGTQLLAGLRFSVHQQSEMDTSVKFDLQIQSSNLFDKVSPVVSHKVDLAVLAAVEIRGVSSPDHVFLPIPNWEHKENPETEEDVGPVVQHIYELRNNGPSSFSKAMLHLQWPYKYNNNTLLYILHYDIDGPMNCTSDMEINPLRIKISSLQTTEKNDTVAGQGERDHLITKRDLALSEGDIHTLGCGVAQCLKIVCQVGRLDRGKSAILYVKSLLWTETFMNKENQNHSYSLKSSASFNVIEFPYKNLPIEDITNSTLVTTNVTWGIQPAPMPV
αvβ6, sequence (P18564 22-707 limits assumed): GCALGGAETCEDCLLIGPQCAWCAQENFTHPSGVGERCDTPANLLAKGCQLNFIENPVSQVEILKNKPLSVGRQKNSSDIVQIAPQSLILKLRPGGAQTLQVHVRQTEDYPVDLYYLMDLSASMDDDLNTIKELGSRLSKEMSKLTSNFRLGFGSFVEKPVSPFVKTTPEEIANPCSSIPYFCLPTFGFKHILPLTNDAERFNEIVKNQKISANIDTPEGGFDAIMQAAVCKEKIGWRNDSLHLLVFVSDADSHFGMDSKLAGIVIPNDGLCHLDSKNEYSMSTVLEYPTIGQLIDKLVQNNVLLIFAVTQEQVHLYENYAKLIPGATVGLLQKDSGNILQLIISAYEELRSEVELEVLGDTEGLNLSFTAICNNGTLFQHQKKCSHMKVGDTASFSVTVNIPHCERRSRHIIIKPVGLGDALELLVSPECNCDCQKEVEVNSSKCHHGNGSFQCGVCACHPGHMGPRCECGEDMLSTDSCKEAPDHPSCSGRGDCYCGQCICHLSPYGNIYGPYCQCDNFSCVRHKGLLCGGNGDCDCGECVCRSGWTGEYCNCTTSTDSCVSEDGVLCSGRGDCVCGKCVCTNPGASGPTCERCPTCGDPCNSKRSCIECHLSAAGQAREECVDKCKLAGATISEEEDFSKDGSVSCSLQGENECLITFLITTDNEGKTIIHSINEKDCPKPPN
αvβ1, sequence (P06756 31-992 limits assumed): as the sequence (P06756 31-992 limits assumed) above
αvβ1, sequence (P05556 21-728 limits assumed): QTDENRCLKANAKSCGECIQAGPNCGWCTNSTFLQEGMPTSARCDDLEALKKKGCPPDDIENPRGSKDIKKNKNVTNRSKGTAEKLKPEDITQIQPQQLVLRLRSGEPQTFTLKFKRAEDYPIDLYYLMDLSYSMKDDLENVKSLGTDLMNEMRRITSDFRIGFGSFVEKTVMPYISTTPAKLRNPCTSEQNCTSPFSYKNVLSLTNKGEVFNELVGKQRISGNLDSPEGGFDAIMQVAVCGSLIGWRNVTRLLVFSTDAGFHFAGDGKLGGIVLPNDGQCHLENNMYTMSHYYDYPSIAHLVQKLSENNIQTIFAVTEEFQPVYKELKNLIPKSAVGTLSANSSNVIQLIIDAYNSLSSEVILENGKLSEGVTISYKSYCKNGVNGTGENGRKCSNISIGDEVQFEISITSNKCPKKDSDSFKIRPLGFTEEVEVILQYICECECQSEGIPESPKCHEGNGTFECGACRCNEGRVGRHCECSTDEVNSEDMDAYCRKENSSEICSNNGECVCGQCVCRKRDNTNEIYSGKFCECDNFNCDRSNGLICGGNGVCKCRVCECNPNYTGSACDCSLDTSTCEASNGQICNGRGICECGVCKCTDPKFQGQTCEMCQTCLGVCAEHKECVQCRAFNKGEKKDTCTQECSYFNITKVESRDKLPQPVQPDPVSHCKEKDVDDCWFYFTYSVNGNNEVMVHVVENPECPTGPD

As a reminder, the IC50 is the concentration that gives 50% inhibition. The low end stands for higher potency, the high end for lower potency. For the compound `O=C(O)C[C@H](CC(=O)N[C@H]1CCN(C(=O)CCCc2ccc3c(n2)NCCC3)C1)c1ccccc1` [Compound 522], the IC50 at αvβ6 was 100 to 1000 nM; on αvβ1 it was under 100 nM.

Take `O=C(O)C[C@H](NC(=O)[C@H]1CCCN(CCCc2ccc3c(n2)NCCC3)C1)c1ccccc1` [Compound 523]: the IC50 against αvβ6 was under 100 nM; on αvβ1, 100 to 1000 nM.

In the case of `O=C(O)CC(CC(=O)N[C@@H]1CCN(C(=O)CCCc2ccc3c(n2)NCCC3)C1)c1ccccc1` (stereo partly shown) [Compound 524], the values for the IC50 on αvβ6 and against αvβ1 were 100 to 1000 nM and under 100 nM, respectively.

With `O=C(O)CC(CC(=O)N[C@H]1CCN(CCCCc2ccc3c(n2)NCCC3)C1)c1ccccc1` (stereo partly shown) [Compound 525], the figures for the concentration for half-maximal inhibition (IC50) against αvβ6 and against αvβ1 were 100 to 1000 nM and under 100 nM, respectively.

For the compound `CN(CC1(C)CCCCC1)[C@@H](CNC(=O)[C@@H]1CCCN(CCCc2ccc3c(n2)NCCC3)C1)C(=O)O` [Compound 527], the IC50 against αvβ6 and against αvβ1 was 100 to 1000 nM in each case.

For `O=C(O)C[C@H](OC[C@@H]1CCCN(CCCc2ccc3c(n2)NCCC3)C1)c1cccc(C2CC2)c1` [Compound 528], the IC50 on αvβ6 and against αvβ1 was over 1000 nM each time.

Consider `O=C(O)C[C@H](NC[C@@H]1CCCN(CCCc2ccc3c(n2)NCCC3)C1)c1cccc(C2CC2)c1` [Compound 529], for which the IC50 at αvβ6 and on αvβ1 was 100 to 1000 nM in each case.

`CN(C[C@@H]1CCCN(CCCc2ccc3c(n2)NCCC3)C1)[C@@H](CC(=O)O)c1cccc(C2CC2)c1` [Compound 530]: the IC50 at αvβ6 and at αvβ1 was over 1000 nM each time.

Turning to `O=C(O)C[C@H](NC[C@@H]1CCCN(CCCc2ccc3c(n2)NCCC3)C1)c1cccc(Br)c1` [Compound 531], the half-inhibitory concentration (IC50) against αvβ6 and against αvβ1 was over 1000 nM in each case.

With `CN(C[C@@H]1CCCN(CCCc2ccc3c(n2)NCCC3)C1)[C@@H](CC(=O)O)c1cccc(Br)c1` [Compound 532], the IC50 at αvβ6 and against αvβ1 was over 1000 nM each time.

As for `O=C(O)C[C@H](NC(=O)[C@@H]1CCCN(CCCc2ccc3c(n2)NCCC3)C1)c1cccc([C@@H]2CCOC2)c1` [Compound 533], the half-inhibitory concentration (IC50) on αvβ6 and on αvβ1 was under 100 nM each time.

Regarding `O=C(O)C[C@H](NC(=O)[C@@H]1CCCN(CCCc2ccc3c(n2)NCCC3)C1)c1cccc([C@H]2CCOC2)c1` [Compound 534], the IC50 against αvβ6 and at αvβ1 was under 100 nM each time.

Take `O=C(O)C[C@H](NC(=O)[C@@H]1CCCN(CCCc2ccc3c(n2)NCCC3)C1)c1cccc(OC2COC2)c1` [Compound 535]: the IC50 against αvβ6 and against αvβ1 was under 100 nM each time.

Regarding `O=C(O)C[C@H](NC(=O)[C@@H]1CCCN(CCCc2ccc3c(n2)NCCC3)C1)c1cccc(-n2cccc2)c1` [Compound 536], the half-maximal inhibitory concentration (IC50) against αvβ6 and at αvβ1 was under 100 nM each time.

As for `COC(C)(C)C1Cc2c(cccc2C(CNC(=O)[C@@H]2CCCN(CCCc3ccc4c(n3)NCCC4)C2)C(=O)O)CO1` (stereo partly shown) [Compound 538], the IC50 on αvβ6 and against αvβ1 was under 100 nM throughout.

On to `O=C(O)C[C@H](NC(=O)[C@@H]1CCCN(CCCc2ccc3c(n2)NCCC3)C1)c1cnc2ccccc2n1` [Compound 539], for which the IC50 against αvβ6 and against αvβ1 was under 100 nM throughout.

With `O=C(O)C[C@H](NC(=O)[C@@H]1CCCN(CCCc2ccc3c(n2)NCCC3)C1)c1cnc2ccccc2c1` [Compound 540], the IC50 against αvβ6 and on αvβ1 was 100 to 1000 nM throughout.

Turning to `O=C(O)C[C@H](NC(=O)[C@@H]1CCCN(CCCc2ccc3c(n2)NCCC3)C1)c1ccc2c(c1)C1(CC2)CC1` [Compound 541], the half-maximal inhibitory concentration (IC50) at αvβ6 and against αvβ1 was under 100 nM each time.

For `CN1CCc2cc(S(=O)(=O)N[C@@H](CNC(=O)[C@@H]3CCCN(CCCc4ccc5c(n4)NCCC5)C3)C(=O)O)ccc21` [Compound 542], the figures for the IC50 on αvβ6 and against αvβ1 were under 100 nM and 100 to 1000 nM, respectively.

As to `O=C(NC[C@H](NS(=O)(=O)c1cccc2c1CCC2)C(=O)O)[C@@H]1CCCN(CCCc2ccc3c(n2)NCCC3)C1` [Compound 543], the 50% inhibitory concentration (IC50) at αvβ6 and on αvβ1 was under 100 nM in each case.

Turning to `O=C(N[C@@H](CNC(=O)[C@@H]1CCCN(CCCc2ccc3c(n2)NCCC3)C1)C(=O)O)c1ccccc1` [Compound 544], the half-inhibitory concentration (IC50) at αvβ6 and against αvβ1 was under 100 nM in each case.

For the compound `CC(C)(C(=O)N[C@@H](CNC(=O)[C@@H]1CCCN(CCCc2ccc3c(n2)NCCC3)C1)C(=O)O)c1ccccc1` [Compound 546], the half-maximal inhibitory concentration (IC50) at αvβ6 and on αvβ1 was under 100 nM each time.

In the case of `O=C(NC[C@H](NC(=O)C1(c2ccccc2)CC1)C(=O)O)[C@@H]1CCCN(CCCc2ccc3c(n2)NCCC3)C1` [Compound 547], the 50% inhibitory concentration (IC50) at αvβ6 and against αvβ1 was under 100 nM in each case.

On to `O=C(N[C@@H](CNC(=O)[C@@H]1CCCN(CCCc2ccc3c(n2)NCCC3)C1)C(=O)O)c1cccc2c1CCC2` [Compound 549], for which the IC50 against αvβ6 and against αvβ1 was under 100 nM in each case.

Consider `C[C@@H]1CCN(CCCc2ccc3c(n2)NCCC3)C[C@@H]1C(=O)N[C@@H](CC(=O)O)c1ccccc1` [Compound 551], for which the IC50 was under 100 nM against αvβ6 and 100 to 1000 nM on αvβ1.

Regarding `C[C@H]1C[C@@H](C(=O)N[C@@H](CC(=O)O)c2ccccc2)CN(CCCc2ccc3c(n2)NCCC3)C1` [Compound 552], the half-inhibitory concentration (IC50) at αvβ6 and at αvβ1 was 100 to 1000 nM each time.

For `C[C@@H]1C[C@@H](C(=O)N[C@@H](CC(=O)O)c2ccccc2)CN(CCCc2ccc3c(n2)NCCC3)C1` [Compound 553], the IC50 against αvβ6 and against αvβ1 was 100 to 1000 nM throughout.

Turning to `C[C@H]1CC[C@@H](C(=O)N[C@@H](CC(=O)O)c2ccccc2)CN1CCCc1ccc2c(n1)NCCC2` [Compound 554], the IC50 was 100 to 1000 nM against αvβ6 and over 1000 nM at αvβ1.

On to `O=C(O)C[C@H](NC(=O)[C@]1(F)CCCN(CCCc2ccc3c(n2)NCCC3)C1)c1ccccc1` [Compound 555], for which the IC50 on αvβ6 and at αvβ1 was 100 to 1000 nM each time.

Turning to `O=C(O)C[C@H](NC(=O)[C@@H]1CCCN(CCCc2ccc3c(n2)NCCC3)C1)c1ccccc1C1CC1` [Compound 556], the half-inhibitory concentration (IC50) on αvβ6 and at αvβ1 was 100 to 1000 nM in each case.

Turning to `O=C(O)C[C@H](NC(=O)[C@@H]1CCCN(CCCc2ccc3c(n2)NCCC3)C1)c1ccc(C2CC2)cc1` [Compound 557], the 50% inhibitory concentration (IC50) against αvβ6 was 100 to 1000 nM; at αvβ1, over 1000 nM.

For `O=C(O)C[C@H](NC(=O)[C@@H]1CCCN(CCCc2ccc3c(n2)NCCC3)C1)c1cccc(C2CC2)c1F` [Compound 559], the IC50 against αvβ6 is 100 to 1000 nM; against αvβ1 it was over 1000 nM.

In the case of `O=C(NC[C@H](C(=O)O)c1cccc2c1CCC2)[C@@H]1CCCN(CCCc2ccc3c(n2)NCCC3)C1` [Compound 560], the IC50 against αvβ6 and against αvβ1 was 100 to 1000 nM in each case.

Turning to `O=C(NC[C@@H](C(=O)O)c1cccc2c1CCC2)[C@@H]1CCCN(CCCc2ccc3c(n2)NCCC3)C1` [Compound 561], the IC50 against αvβ6 and on αvβ1 was under 100 nM each time.

In the case of `O=C(NC[C@H](Nc1ncnc2c(C(F)(F)F)cccc12)C(=O)O)[C@@H]1CCCN(CCCc2ccc3c(n2)NCCC3)C1` [Compound 562], the IC50 against αvβ6 and against αvβ1 was under 100 nM in each case.

Take `O=C(NC[C@H](Nc1ncncc1C(F)(F)F)C(=O)O)[C@@H]1CCCN(CCCc2ccc3c(n2)NCCC3)C1` [Compound 563]: the IC50 against αvβ6 and against αvβ1 was under 100 nM throughout.

In the case of `O=C(NC[C@H](C(=O)O)c1cccc(N2C[C@H]3CC[C@@H]2CO3)c1)[C@@H]1CCCN(CCCc2ccc3c(n2)NCCC3)C1` [Compound 565], the IC50 against αvβ6 and against αvβ1 was under 100 nM in each case.

For the compound `O=C(NC[C@H](C(=O)O)c1cccc(N2C[C@@H]3CC[C@H]2CO3)c1)[C@@H]1CCCN(CCCc2ccc3c(n2)NCCC3)C1` [Compound 566], the half-inhibitory concentration (IC50) against αvβ6 and at αvβ1 was under 100 nM each time.

For `O=C(Nc1ccccc1)N[C@@H](CNC(=O)[C@@H]1CCCN(CCCc2ccc3c(n2)NCCC3)C1)C(=O)O` [Compound 567], the concentration for half-maximal inhibition (IC50) against αvβ6 and on αvβ1 was under 100 nM throughout.

For `CC1(C)CN(c2cccc([C@@H](CO[C@@H]3CCCN(CCCc4ccc5c(n4)NCCC5)C3)CC(=O)O)c2)CCO1` [Compound 568], the IC50 against αvβ6 and against αvβ1 was under 100 nM each time.

On to `CC1(C)CN(c2cccc([C@H](CO[C@@H]3CCCN(CCCc4ccc5c(n4)NCCC5)C3)CC(=O)O)c2)CCO1` [Compound 569], for which the IC50 at αvβ6 and at αvβ1 was 100 to 1000 nM throughout.

As to `CC1(C)CCCN(c2cccc([C@@H](CO[C@@H]3CCCN(CCCc4ccc5c(n4)NCCC5)C3)CC(=O)O)c2)C1` [Compound 570], the IC50 on αvβ6 and at αvβ1 was under 100 nM throughout.

On to `CC1(C)CCN(c2cccc([C@@H](CO[C@@H]3CCCN(CCCc4ccc5c(n4)NCCC5)C3)CC(=O)O)c2)CC1` [Compound 571], for which the IC50 at αvβ6 and at αvβ1 was under 100 nM each time.

With `CC1(C)CCCN(c2cccc([C@H](CO[C@@H]3CCCN(CCCc4ccc5c(n4)NCCC5)C3)CC(=O)O)c2)C1` [Compound 572], the IC50 against αvβ6 and at αvβ1 was under 100 nM each time.

In the case of `CC1(C)CCN(c2cccc([C@H](CO[C@@H]3CCCN(CCCc4ccc5c(n4)NCCC5)C3)CC(=O)O)c2)CC1` [Compound 573], the IC50 at αvβ6 and at αvβ1 was 100 to 1000 nM in each case.

As to `Cc1cc(C)n(-c2cccc([C@@H](CO[C@@H]3CCCN(CCCc4ccc5c(n4)NCCC5)C3)CC(=O)O)c2)n1` [Compound 574], the half-inhibitory concentration (IC50) at αvβ6 and against αvβ1 was under 100 nM in each case.

In the case of `Cc1cc(C)n(-c2cccc([C@H](CO[C@@H]3CCCN(CCCc4ccc5c(n4)NCCC5)C3)CC(=O)O)c2)n1` [Compound 575], the figures for the half-maximal inhibitory concentration (IC50) against αvβ6 and at αvβ1 were under 100 nM and 100 to 1000 nM, respectively.
